Measurements published in US20260306460A1, “COMPOSITION FOR REMOVING AND INHIBITING SENESCENT CELLS, AND USES THEREOF” (LIFECEUTIX CO., LTD., priority 2023, published 2026).

Columns and labels:
[1] = tested on: HMGN1 secreted from senescent A549 cells; assay: HMGN1 secretion (ELISA) from senescent A549 cancer cells, Example 12; type: cell-based, human; details: senescent untreated = 100%; 30 μM; 90 μM for LX-305, 905, 1302, 1601, 1603, 2003, 2702, 2901, 3106; 270 μM for LX-1103, 2005, 2007;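 note: A549 cells made senescent by doxorubicin exposure, with DMSO-treated cells serving as the non-senescent control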
Protocol: Cells were treated with doxorubicin or control (DMSO) and cultured.

[2] = tested on: senescent foreskin cells; assay: Survival of senescent human cells treated with supernatant (secreted fluid) from death-induced cells, Example 13; type: cell-based; details: Table 8; supernatant from dying senescent cells treated at 30, 90 or 270 μM (as Example 11); senescent treated cells
Protocol: After 3 days, cell viability was measured using CellTiter-Glo Luminescent Cell Viability Assay (Promega) or light microscopy.
During this additional culture, by checking with an optical microscope, etc., the medium supernatants containing secreted fluid from normally proliferating and senescent cells in which cell death was induced were obtained. The obtained medium supernatant was replaced with the medium of normally proliferating and senescent cells, respectively, and cell survival rate was measured after 3 days.

[3] = tested on: naturally aged C57BL6J mice; assay: Skin aging (dermal thickness, COL1A1 and SDF1 mRNA, hair loss) in naturally aged mice, Example 21-10, Table 25; type: in vivo, mouse; details: for Dermal Thickness (μm): mouse, in vivo; for Relative area of hair loss (%) / Col1a1 mRNA (Fold) / SDF1 mRNA (fold): naturally aged mice; for Relative area of hair loss (%): untreated aged = 100; for Col1a1 mRNA (Fold) / SDF1 mRNA (fold): skin, untreated aged = 1
Protocol: (§1) 22-month-old female C57BL6J mice (KRIBB Laboratory Animal Resource Center) were acclimated to the experimental environment for one week, after which the aged mice were randomly assigned to experimental and control groups. Eight-week-old, non-aged mice served as controls. LX-403 was mixed in a 10% ethanol solution of PEG400 and administered orally at a concentration of 25 mg/kg daily for 21 days, or administered to the skin, joints, or eyes at a concentration of 1 μM. LX-1801 was mixed in distilled water with 4% DMSO, 30% PEG300, and 5% Tween80 and administered to the skin, joints, or eyes at a concentration of 0.4 μM daily for 21 days. LX-2001 was mixed in PBS and administered to the skin, joints, or eyes at a concentration of […] daily for 21 days. LX-2002 was mixed in distilled water with 4% DMSO, 30% PEG300, and 5% Tween80 and administered to the skin, joints, or eyes at a concentration of 2 μM daily for 21 days. […] LX-2005 was mixed in distilled water with 4% DMSO, 30% PEG300, and 5% Tween80 and administered to the skin, joints, or eyes at a concentration of 90 μM daily for 21 days. LX-2007 was mixed in distilled water with 4% DMSO, 30% PEG300, and 5% Tween80 and administered to the skin, joints, or eyes at a concentration of 90 μM daily for 21 days. […] LX-3002 was mixed in distilled water with 4% DMSO, 30% PEG300, and 5% Tween80 and administered orally at a concentration of 10 mg/kg daily for 21 days. […] LX-5411 was mixed in 5% PBS and administered orally at a concentration of 10 mg/kg daily for 21 days or administered to the skin, joints, or eyes at a concentration of 3 μM. LX-5701 was mixed in PBS and administered orally at a concentration of 360 mg/kg daily for 21 days. LX-6807 was mixed in saline and administered intraperitoneally at a concentration of 1 mg/kg daily for 21 days. LX-2101 or LX-2102 was mixed in PBS solution with 5% DMSO and administered intraperitoneally at a concentration of 20 mg/kg or 10 mg/kg, respectively, daily for 21 days. The control group received only the solution in the same volume. After the end of drug administration, the methods described in each example below were performed.
Frozen sections of skin tissue were stained with Hematoxylin/Eosin (H/E), and the dermal thickness was observed under an optical microscope. Furthermore, the mRNA levels of collagen (COL1A1), a skin component, and SDF1, which suppresses age-related pigmentation, were measured using qRT-PCR as described in Example 7-2 of WO2023-085787 A1. […] Furthermore, biweekly examinations were performed to assess the onset of hair loss due to aging.

[4] = tested on: naturally aged C57BL6J mice; type: in vivo, mouse; details: after 7 days; 6 mm punch dorsal skin wounds; naturally aged mice; untreated aged 3.2 (±0.4)
[5] = tested on: naturally aged C57BL6J mice; assay: Cataract incidence in naturally aged mice, Example 21-15, Table 30; type: in vivo, mouse; details: orally twice a week, 360 mg/kg, until death, untreated aged 83
Protocol: as §1
Cataracts, which occur with age, are a disease that causes visual impairment due to clouding of the lens and are a major cause of blindness. The mice of Example 21-1 were treated with the test compound mixed in PBS orally twice a week at a concentration of 360 mg/kg. Cataract development was assessed biweekly until death.

[6] = tested on: bleomycin-induced scleroderma C57BL6J mice; assay: Bleomycin scleroderma in mice (p16, COL1A1 mRNA, dermal thickness), Example 24-2, Table 48; type: in vivo, mouse; details: daily for 21 days; for p16 mRNA: untreated 100 (±8.8); for Col1a1 mRNA: untreated 100 (±13.2); for Dermal Thickness: untreated 459 (±38.7)
Protocol: Eight-week-old male C57BL6J mice (KRIBB Laboratory Animal Resource Center) were acclimated to the experimental environment for one week. Then, 100 μl of the anticancer drug bleomyxin (1 mg/ml) was administered subcutaneously every other day to induce scleroderma for more than three weeks. Mice with scleroderma were randomly assigned to experimental and control groups. LX-403 was mixed with a 10% ethanol solution of PEG400 and administered orally at a concentration of 25 mg/kg daily for 21 days or administered directly to the skin at a concentration of 1 μM. LX-1801 was mixed with a solution of 4% DMSO, 30% PEG300, and 5% Tween80 in distilled water and administered subcutaneously at a concentration of 0.4 μM daily for 21 days. LX-2001 was mixed in PBS and administered intradermally at a concentration of 2 μM daily for 21 days. LX-2002 was mixed in distilled water with 4% DMSO, 30% PEG300, and 5% Tween80 and administered intradermally at a concentration of 2 μM daily for 21 days. […] LX-2005 was mixed in distilled water with 4% DMSO, 30% PEG300, and 5% Tween80 and administered intradermally at a concentration of 90 μM daily for 21 days. LX-2007 was mixed in distilled water with 4% DMSO, 30% PEG300, and 5% Tween80 and administered intradermally at a concentration of 90 μM daily for 21 days. […] LX-3002 was mixed with distilled water with 4% DMSO, 30% PEG300, 5% tween80 and administered orally at 10 mg/kg daily for 21 days. […] LX-5411 was mixed with 5% PBS and administered orally at 10 mg/kg daily for 21 days or subcutaneously at 3 μM. LX-5701 was mixed with PBS and administered orally at 360 mg/kg daily for 21 days. LX-6807 was mixed in saline and administered intraperitoneally at a concentration of 1 mg/kg daily for 21 days. The control group was administered only the solution in the same volume. After the end of drug administration, mice were sacrificed in the same manner as in Example 7-2 of WO2023-085787 A1, RNA was extracted from skin tissue, and the synthesized cDNA was used to perform and analyze the mRNA amounts of p16 and collagen (COL1A1) by qRT-PCR (quantitative real-time PCR). In addition, to measure the degree of bleomycin-induced skin hardening, skin frozen sections were stained with H/E (Hematoxylin/Eosin), and the thickness of the dermis was observed under an optical microscope.

[7] = tested on: NaIO3-induced retinal degenerative C57BL6J mice; assay: NaIO3 retinal degeneration in mice (p16 mRNA, outer nuclear layer thickness), Example 29, Table 53; type: in vivo, mouse; details: daily for 21 days; for Outer nuclear layer thickness: untreated 27.4 (±1.3); for p16 mRNA: untreated 100%
Protocol: Then, retinal degenerative diseases were induced for more than 7 days by intravenous administration of 20 mg/kg of NaIO3, an oxidizing agent that induces retinal pigment epithelial cell death and retinal degeneration. Mice with retinal degenerative diseases were randomly assigned to experimental and control groups. […] The control group received only the solution in the same volume. […] In addition, frozen sections of the other eye tissue were stained with H/E (Hematoxylin/Eosin), and the thickness of the outer nuclear layer (ORL) was observed under an optical microscope. […] The mRNA amount after aging induction was calculated as 100% and compared with the mRNA amount of p16 after treatment with the test compound.

Row | Compound | HMGN1 [1] [%] | Survival [2] | Dermal Thickness (μm) [3] | Relative area of hair loss (%) [3] | Col1a1 mRNA (Fold) [3] | SDF1 mRNA (fold) [3] | Wound size (mm) [4] | Cataract incidence (%) [5] [%] | p16 mRNA [6] | Col1a1 mRNA [6] | Dermal Thickness [6] | Outer nuclear layer thickness [7] | p16 mRNA [7]
1 | CC1(C)CC[C@]2(C(=O)O)CC[C@]3(C)C(=CC[C@@H]4[C@@]5(C)CC[C@H](O)C(C)(C)[C@@H]5CC[C@]43C)[C@@H]2C1 [LX-2003, Oleanolic acid] | 218 | 64.2 | 235 (±56.3) μm | 71 (±2.2) % | 2.3 (±0.4) Fold | 1.7 (±0.1) fold | 2.6 (±0.6) mm | 69 | 72.4 (±5.8) % | 73.8 (±3.5) % | 411 (±81.3) μm | 31.2 (±8.7) μm | 52 (±6.3) %
2 | C=C(C)[C@@H]1CC[C@]2(C(=O)O)CC[C@]3(C)[C@H](CC[C@@H]4[C@@]5(C)CC[C@H](O)C(C)(C)[C@@H]5CC[C@]43C)[C@@H]12 [LX-2005, Betulinic acid] | 252 | 91.6 | 227 (±28.4) μm | 80 (±4.9) % | 1.7 (±0.2) Fold | 1.9 (±0.2) fold | 2.9 (±0.3) mm | 72 | 62.8 (±4.6) % | 68.2 (±2.4) % | 432 (±61.7) μm | 30.9 (±3.8) μm | 71 (±4.9) %
3 | CC1(C)C=C2[C@H]3CC[C@@H]4[C@@]5(C)CCC(=O)C(C)(C)[C@@H]5CC[C@@]4(C)[C@]3(C)CC[C@@]2(C(=O)O)CC1 [LX-2007, Moronic acid] | 192 | 95.7 | 219 (±31.1) μm | 86 (±5.5) % | 1.6 (±0.3) Fold | 1.3 (±0.2) fold | 3.0 (±0.2) mm | 80 | 75.1 (±3.5) % | 80.5 (±4.0) % | 421 (±83.6) μm | 29.4 (±7.5) μm | 75 (±5.9) %
4 | Tocofersolan [LX-3001] | 261 | 58.7 | 223 (±15.7) μm | – | – | – | 2.4 (±0.1) mm | 73 | 76.1 (±5.5) % | 81.4 (±2.5) % | 421 (±28.4) μm | 34.1 (±2.1) μm | 80 (±2.5) %
